Data reported in patent publication US20230139171A1 (SITA Information Networking Computing UK Limited, priority 2019, published 2023).

Tests used:
Assay type in all cases: cell-based
human TLR9 = biological target: T1, human TLR9 (Homo sapiens, UniProt Q9NR96); experiment: TLR9 inhibition reporter assay (HEK-Blue cells, SEAP reporter, ODN2006 stimulation); settings: HEK-Blue cells overexpressing human TLR9, SEAP reporter, ODN2006 5 nM
T1 construct: host or cells: HEK-Blue cells
T1 sequence (Q9NR96 26-1032): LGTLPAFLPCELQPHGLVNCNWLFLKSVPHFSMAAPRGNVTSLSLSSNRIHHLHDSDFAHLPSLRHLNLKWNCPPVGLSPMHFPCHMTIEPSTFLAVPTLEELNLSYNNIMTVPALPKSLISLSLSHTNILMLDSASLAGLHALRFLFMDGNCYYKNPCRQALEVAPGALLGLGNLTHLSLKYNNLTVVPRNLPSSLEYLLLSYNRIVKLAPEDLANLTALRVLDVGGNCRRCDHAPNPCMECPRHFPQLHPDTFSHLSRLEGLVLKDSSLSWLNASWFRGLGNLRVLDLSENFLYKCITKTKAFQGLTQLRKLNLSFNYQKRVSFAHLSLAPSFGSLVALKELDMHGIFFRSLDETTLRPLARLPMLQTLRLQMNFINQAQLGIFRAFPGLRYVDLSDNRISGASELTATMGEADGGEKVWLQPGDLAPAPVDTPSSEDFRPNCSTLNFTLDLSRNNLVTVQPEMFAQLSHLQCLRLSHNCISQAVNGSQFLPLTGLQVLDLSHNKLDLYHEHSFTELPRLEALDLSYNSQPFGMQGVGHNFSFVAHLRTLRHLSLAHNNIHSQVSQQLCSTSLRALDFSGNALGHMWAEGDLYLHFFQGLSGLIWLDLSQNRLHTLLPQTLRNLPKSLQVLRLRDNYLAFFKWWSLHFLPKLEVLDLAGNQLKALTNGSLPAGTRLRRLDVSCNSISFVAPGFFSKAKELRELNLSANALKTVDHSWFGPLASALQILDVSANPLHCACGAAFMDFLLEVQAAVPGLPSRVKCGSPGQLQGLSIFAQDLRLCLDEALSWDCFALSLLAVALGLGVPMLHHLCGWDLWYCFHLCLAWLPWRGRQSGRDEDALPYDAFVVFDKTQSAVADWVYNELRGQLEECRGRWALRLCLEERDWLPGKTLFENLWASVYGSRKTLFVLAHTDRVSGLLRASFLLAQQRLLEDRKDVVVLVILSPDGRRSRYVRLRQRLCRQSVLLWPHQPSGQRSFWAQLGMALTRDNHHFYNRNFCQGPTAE
How it was run: (§1)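 Compound treatment: 30 min, RT, 0.05 nM–50 μM final. Agonist: TLR7 gardiquimod 7.5 μM; TLR8 R848 15.9 μM; TLR9 ODN2006 5 nM. Incubation 22 h, 37 °C, 5% CO2. Readout SEAP, HEK-Blue Detection.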

human TLR8 = biological target: T2, human TLR8 (Homo sapiens, UniProt Q9NR97); experiment: TLR8 inhibition reporter assay (HEK-Blue cells, SEAP reporter, R848 stimulation); settings: HEK-Blue cells overexpressing human TLR8, SEAP reporter, R848 15.9 μM; read-out: TLR8 IC50
T2 construct: host or cells: HEK-Blue cells
T2 sequence (Q9NR97 27-1041): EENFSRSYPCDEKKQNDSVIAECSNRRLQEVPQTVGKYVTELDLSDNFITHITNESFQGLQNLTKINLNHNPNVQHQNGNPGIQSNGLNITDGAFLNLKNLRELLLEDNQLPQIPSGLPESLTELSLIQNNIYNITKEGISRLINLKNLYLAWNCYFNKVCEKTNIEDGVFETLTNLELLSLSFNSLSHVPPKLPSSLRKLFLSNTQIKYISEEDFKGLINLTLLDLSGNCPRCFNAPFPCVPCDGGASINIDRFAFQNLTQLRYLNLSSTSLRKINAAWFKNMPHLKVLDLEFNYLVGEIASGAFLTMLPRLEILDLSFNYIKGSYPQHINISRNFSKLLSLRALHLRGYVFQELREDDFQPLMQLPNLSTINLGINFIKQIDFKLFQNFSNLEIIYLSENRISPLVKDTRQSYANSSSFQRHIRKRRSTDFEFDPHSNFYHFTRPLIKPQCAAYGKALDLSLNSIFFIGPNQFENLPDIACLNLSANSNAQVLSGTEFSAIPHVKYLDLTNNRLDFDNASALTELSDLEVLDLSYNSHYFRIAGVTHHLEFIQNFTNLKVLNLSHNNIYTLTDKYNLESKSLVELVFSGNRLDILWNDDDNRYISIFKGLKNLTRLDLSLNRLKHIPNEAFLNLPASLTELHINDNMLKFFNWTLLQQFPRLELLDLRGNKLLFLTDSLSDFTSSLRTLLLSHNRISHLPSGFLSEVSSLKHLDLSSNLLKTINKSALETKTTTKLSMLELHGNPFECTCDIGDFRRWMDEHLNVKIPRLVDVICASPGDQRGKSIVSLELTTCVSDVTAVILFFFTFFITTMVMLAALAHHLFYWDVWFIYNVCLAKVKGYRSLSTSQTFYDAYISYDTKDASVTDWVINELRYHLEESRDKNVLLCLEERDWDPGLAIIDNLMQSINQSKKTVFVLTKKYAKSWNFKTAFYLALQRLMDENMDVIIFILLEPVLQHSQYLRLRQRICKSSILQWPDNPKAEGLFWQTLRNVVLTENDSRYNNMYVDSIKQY
How it was run: as §1

human TLR7 = biological target: T3, human TLR7 (Homo sapiens, UniProt Q9NYK1); experiment: TLR7 inhibition reporter assay (HEK-Blue cells, SEAP reporter, gardiquimod stimulation); settings: HEK-Blue cells overexpressing human TLR7, SEAP reporter, gardiquimod 7.5 μM; read-out: TLR7 IC50
T3 construct: host or cells: HEK-Blue cells
T3 sequence (Q9NYK1 27-1049): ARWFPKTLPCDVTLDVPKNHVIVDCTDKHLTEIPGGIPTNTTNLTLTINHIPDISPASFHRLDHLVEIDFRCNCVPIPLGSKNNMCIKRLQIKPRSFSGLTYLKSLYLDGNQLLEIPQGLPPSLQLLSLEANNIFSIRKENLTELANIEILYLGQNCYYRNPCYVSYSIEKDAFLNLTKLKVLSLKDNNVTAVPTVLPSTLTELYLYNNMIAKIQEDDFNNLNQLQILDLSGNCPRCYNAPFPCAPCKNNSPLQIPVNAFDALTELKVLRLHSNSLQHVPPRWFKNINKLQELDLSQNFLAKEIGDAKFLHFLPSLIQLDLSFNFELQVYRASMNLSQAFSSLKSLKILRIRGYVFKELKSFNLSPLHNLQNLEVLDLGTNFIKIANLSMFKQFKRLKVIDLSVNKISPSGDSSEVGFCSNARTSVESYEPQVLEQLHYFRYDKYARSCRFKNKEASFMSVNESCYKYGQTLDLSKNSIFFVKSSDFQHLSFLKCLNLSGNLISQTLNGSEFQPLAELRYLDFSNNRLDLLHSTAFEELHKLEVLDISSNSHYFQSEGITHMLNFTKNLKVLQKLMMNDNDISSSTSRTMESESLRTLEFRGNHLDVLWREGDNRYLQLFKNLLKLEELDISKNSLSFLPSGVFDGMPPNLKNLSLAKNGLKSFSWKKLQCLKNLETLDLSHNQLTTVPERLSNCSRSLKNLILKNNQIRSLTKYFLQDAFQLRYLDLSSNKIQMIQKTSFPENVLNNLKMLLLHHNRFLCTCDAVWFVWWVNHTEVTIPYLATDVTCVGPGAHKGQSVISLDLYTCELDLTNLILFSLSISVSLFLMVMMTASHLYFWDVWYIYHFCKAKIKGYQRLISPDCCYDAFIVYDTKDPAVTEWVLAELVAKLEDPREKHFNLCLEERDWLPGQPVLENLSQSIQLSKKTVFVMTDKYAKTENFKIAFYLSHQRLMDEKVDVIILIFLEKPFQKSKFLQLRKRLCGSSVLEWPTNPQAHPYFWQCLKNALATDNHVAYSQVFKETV
How it was run: as §1

| Structure (SMILES) | IC50 (human TLR9) | IC50 (human TLR8) | IC50 (human TLR7) |
| --- | --- | --- | --- |
| COc1cc(-c2[nH]c3sc(C4CCC(NC56CC(C5)C6)CC4)nc3c2C(C)C)cn2ncnc12 (single isomer, unassigned) [Example 169, N-(4-(6-isopropyl-5-(8-methoxy-[1,2,4]triazolo[1,5-a]pyridin-6-yl)-4H-pyrrolo[3,2-d]thiazol-2-yl)cyclohexyl)bicyclo[1.1.1]pentan-1-amine] | 9810 nM | 17 nM | 4.17 nM |
| Cc1c(-c2[nH]c3sc(N4CCN(CC5CCOCC5)C[C@H]4C)nc3c2C(C)C)cn2ncnc2c1C [Example 317, (R)-5-(7,8-dimethyl-[1,2,4]triazolo[1,5-a]pyridin-6-yl)-6-isopropyl-2-(2-methyl-4-((tetrahydro-2H-pyran-4-yl)methyl)piperazin-1-yl)-4H-pyrrolo[3,2-d]thiazole] | 44400 nM | 4.22 nM | 9.47 nM |
| COc1cc(-c2[nH]c3sc(C4CCC(N5CCCOCC5)CC4)nc3c2C(C)C)cn2ncnc12 (single isomer, unassigned) [Example 102, 4-(4-(6-isopropyl-5-(8-methoxy-[1,2,4]triazolo[1,5-a]pyridin-6-yl)-4H-pyrrolo[3,2-d]thiazol-2-yl)cyclohexyl)-1,4-oxazepane] | 3890 nM | 14 nM | 0.37 nM |
| COc1cc(-c2[nH]c3sc(C4CCC(N(C)C5COC5)CC4)nc3c2C(C)C)cn2ncnc12 (stereo not drawn) [Example 124, N-(4-(6-isopropyl-5-(8-methoxy-[1,2,4]triazolo[1,5-a]pyridin-6-yl)-4H-pyrrolo[3,2-d]thiazol-2-yl)cyclohexyl)-N-methyloxetan-3-amine] | 28600 nM | 31.5 nM | 7.72 nM |
| CCN(C)CC(=O)N[C@H]1CC[C@H](c2nc3c(C(C)C)c(-c4cc(OC)c5ncnn5c4)[nH]c3s2)CC1 [Example 128, Trans 2-(ethyl(methyl)amino)-N-(4-(6-isopropyl-5-(8-methoxy-[1,2,4]triazolo[1,5-a]pyridin-6-yl)-4H-pyrrolo[3,2-d]thiazol-2-yl)cyclohexyl)acetamide] | 13400 nM | 8.29 nM | 1.21 nM |
| Cc1c(-c2[nH]c3sc(C4CCC(N5CCC5)CC4)nc3c2C(C)C)cn(C)c(=O)c1C (single isomer, unassigned) [Example 255, 5-(2-(4-(azetidin-1-yl)cyclohexyl)-6-isopropyl-4H-pyrrolo[3,2-d]thiazol-5-yl)-1,3,4-trimethylpyridin-2(1H)-one] | 15100 nM | 4.88 nM | 6.86 nM |
| Cc1c(-c2[nH]c3sc(CNC4CCN(C(C)C)CC4)nc3c2C(C)C)cn2ncnc2c1C [Example 401, N-((5-(7,8-dimethyl-[1,2,4]triazolo[1,5-a]pyridin-6-yl)-6-isopropyl-4H-pyrrolo[3,2-d]thiazol-2-yl)methyl)-1-isopropylpiperidin-4-amine] | 13500 nM | 35.7 nM | 36.9 nM |

Further lines, results first:

| IC50 (human TLR9) | IC50 (human TLR8) | IC50 (human TLR7) | Structure (SMILES) |
| --- | --- | --- | --- |
| 5810 nM | 19 nM | 6.92 nM | COc1cc(-c2[nH]c3sc(C4CCC(NC5(C)COC5)CC4)nc3c2C(C)C)cn2ncnc12 (single isomer, unassigned) [Example 71, N-(4-(6-isopropyl-5-(8-methoxy-[1,2,4]triazolo[1,5-a]pyridin-6-yl)-4H-pyrrolo[3,2-d]thiazol-2-yl)cyclohexyl)-3-methyloxetan-3-amine] |
| 5490 nM | 41.9 nM | 2.42 nM | COc1cc(-c2[nH]c3sc(C4CCC(N5CC6(C5)CS(=O)(=O)C6)CC4)nc3c2C(C)C)cn2ncnc12 (stereo not drawn) [Example 97, 6-(4-(6-isopropyl-5-(8-methoxy-[1,2,4]triazolo[1,5-a]pyridin-6-yl)-4H-pyrrolo[3,2-d]thiazol-2-yl)cyclohexyl)-2-thia-6-azaspiro[3.3]heptane 2,2-dioxide] |
| 6520 nM | 5.07 nM | 11.5 nM | Cc1c(-c2[nH]c3sc(C(=O)N4CCN(C(C)C)CC4)nc3c2C(C)C)cn2ncnc2c1C [Example 380, (5-(7,8-dimethyl-[1,2,4]triazolo[1,5-a]pyridin-6-yl)-6-isopropyl-4H-pyrrolo[3,2-d]thiazol-2-yl)(4-isopropylpiperazin-1-yl)methanone] |
| 7790 nM | 11.8 nM | 1.73 nM | COc1cc(-c2[nH]c3sc(C4CCC(NCC(C)(C)OC)CC4)nc3c2C(C)C)cn2ncnc12 (single isomer, unassigned) [Example 87, 4-(6-isopropyl-5-(8-methoxy-[1,2,4]triazolo[1,5-a]pyridin-6-yl)-4H-pyrrolo[3,2-d]thiazol-2-yl)-N-(2-methoxy-2-methylpropyl)cyclohexan-1-amine] |
| 9800 nM | 345 nM | 48.2 nM | Cc1c(-c2[nH]c3sc(CN4CC5(CNC5)C4)nc3c2C(C)C)cn2ncnc2c1C [Example 409, 2-((2,6-diazaspiro[3.3]heptan-2-yl)methyl)-5-(7,8-dimethyl-[1,2,4]triazolo[1,5-a]pyridin-6-yl)-6-isopropyl-4H-pyrrolo[3,2-d]thiazole] |
